# Measured values reported in PubChem BioAssay AID1996.
# Settings: buffer; pH 7.4; 200.0 µM
row,SMILES,solubility kinetic
1,Cc1ccc(-c2cc(C(=O)N3CCCCCC3)no2)cc1,1.3 µg/mL
2,CCCCCCCNC(=O)c1cc(-c2ccncc2)nc2ccccc12,0.8 µg/mL
3,CCC(=NCCN1CCOCC1)c1c(O)n(C2CCCCC2)c(=O)[nH]c1=O,52.6 µg/mL
4,COc1ccc(S(=O)(=O)NC2CCCCCC2)cc1C(N)=O,11.9 µg/mL
5,Cc1c(C)n(Cc2ccccc2)c2ccc(C(=O)O)cc12,> 41.9 µg/mL
6,On1c(-c2ccccc2Cl)nc2ncccc21,> 36.9 µg/mL
7,O=C(NCC1CCCO1)c1cc(-c2ccc(F)cc2)no1 (stereo not drawn),> 43.5 µg/mL
8,Cc1ccc(O)c(CNc2nc3ccccc3n2C(C)C)c1,0.6 µg/mL
9,Cc1cc(C)c(OCC(=O)OCC(=O)NC2CCCCCCC2)c(C)c1,23.5 µg/mL
10,CCN(CC)c1ccc(N=CN2CCOCC2)cc1,35.9 µg/mL
11,CCOc1ccc(S(=O)(=O)c2c[nH]c3ccccc3c2=O)cc1,1.7 µg/mL
12,CCC(C(=O)NC1CC(C)(C)NC(C)(C)C1)c1ccccc1 (stereo not drawn),> 45.4 µg/mL
13,CN(C)Cc1cc(C(C)(C)C)cc(C(C)(C)C)c1O,0.8 µg/mL
14,Cc1c(C)n(CC(O)CN2CCN(C)CC2)c2ccccc12 (stereo not drawn),43.3 µg/mL
15,COc1ccc(C(=O)NCc2ccc(N3CCN(C)CC3)cc2)cc1,> 50.9 µg/mL
16,COc1ccc2oc(N)c(C=O)c(=O)c2c1,30.8 µg/mL
17,Cc1ccc(C(=O)NC(C)C2CC3CCC2C3)cc1 (stereo not drawn),< 0.6 µg/mL
18,Cc1ccccc1CC1(CO)CCCN(C(=O)CCC(F)(F)F)C1 (stereo not drawn),48.3 µg/mL
19,Cc1ccc(C)c(NC(=S)NCCCN2CCOCC2)c1,> 46.1 µg/mL
20,Cc1ccsc1C1CC(=O)Nc2ccccc2S1 (stereo not drawn),35.6 µg/mL
21,COc1ccc(C(=O)Nc2ccc(S(=O)(=O)N3CCOCC3)cc2)cc1,2.9 µg/mL
22,O=C(C1CCCO1)N1CCN(c2ccccn2)CC1 (stereo not drawn),36.8 µg/mL
23,CC(C)(C)c1csc(NC(=O)CS(=O)(=O)c2ccccc2)n1,50.6 µg/mL
24,N/C(=N\OC(=O)CCCc1ccccc1)c1ccccc1Cl,11.4 µg/mL

row,SMILES,solubility kinetic
1,CC(c1ccccc1)N1CCc2[nH]c(=S)[nH]c(=O)c2C1 (stereo not drawn),19.9 µg/mL
2,CC1CCCCC1NC(=O)COc1ccc(C#N)cc1 (stereo not drawn),> 40.9 µg/mL
3,CCOC(=O)CN1N=C(c2ccc(C)cc2)CCC1=O,> 41.1 µg/mL
4,COc1ccc(NC(=O)CN2CCc3ccccc3C2)c([N+](=O)[O-])c1,1.8 µg/mL
5,COc1cccc(OCC(=O)N(C)Cc2nc(-c3ccccc3)no2)c1,36.6 µg/mL
6,COc1ccc(CCC(=O)Nc2ncc(C)s2)cc1OC,1.8 µg/mL
7,CCn1c(=O)c2sccc2n(Cc2ccccc2)c1=O,8.9 µg/mL
8,O=C(O)C1CCCN1S(=O)(=O)c1ccc(Br)cc1 (stereo not drawn),> 50.1 µg/mL
9,Cc1cc(C)nc(SCc2cn3ccccc3n2)n1,> 40.6 µg/mL
10,CCc1cccc(C)c1NC(=S)NCC1CCN(c2ccc(OC)cc2)C1 (stereo not drawn),2.7 µg/mL
11,CCOc1ccc2nc(SCC(=O)Nc3nonc3C)[nH]c2c1,2.2 µg/mL
12,O=C(Nc1ccccc1)C1CCN(C(=O)c2ccco2)CC1,> 44.8 µg/mL
13,CC(=C\c1ccccc1)/C=C1/SC(=S)N(CCCC(=O)O)C1=O,> 52.1 µg/mL
14,COC(=O)CSc1nc(C)cc(N2CCOCC2)n1,> 42.5 µg/mL
15,c1ccc2[nH]c(CCCCc3nc4ccccc4[nH]3)nc2c1,43.4 µg/mL
16,CCN(C(=O)Cn1c([N+](=O)[O-])cnc1C)c1ccccc1,> 43.2 µg/mL
17,COc1ccc(/C=C/C(=O)N2CCNC(=O)C2)c(OC)c1,41.3 µg/mL
18,Cc1nn(C)c(C)c1NC(=O)COc1ccccc1C#N,> 42.6 µg/mL
19,Cc1cc(C)c(NC(=S)NC(CO)(CO)CO)c(C)c1,> 44.8 µg/mL
20,O=C(/C=C/c1ccccc1)Nc1cccnc1Oc1ccccc1F,2.7 µg/mL
21,O=C(Nc1cscc1S(=O)(=O)c1ccc(Cl)cc1)c1ccccc1Cl,2.6 µg/mL
22,CC(C)(C)C(=O)NC1CC2CCCC(C1)N2C(=O)Nc1ccccc1F (stereo not drawn),6.1 µg/mL
23,O=C1OCc2ccc(NC(=O)C3CC3)cc21,> 32.6 µg/mL
24,Cc1cc(C)cc(OCC(=O)N2CCN(c3ncccn3)CC2)c1,> 49 µg/mL
